# Test results: patent publication US9034381B2, “Process to control particle size” (Alphapharm Pty Ltd, priority 2005, dated 2015)
# Values joined by “and” are separate entries in the source; they are usually repeats but may differ in a detail not shown here. Equal values may be shown once.
# Assay: Particle size measurement of milled material (Malvern Mastersizer S laser diffraction)
# Format: physicochemical
# [1] = Example 1 (comparative), feedstock, individual samples
# [2] = Example 1 (comparative), feedstock
# [3] = Example 1 (comparative), micronised in a single process, composite
# [4] = Example 1 (comparative), micronised in a single process, individual samples
# [5] = Example 2 (comparative), feedstock, individual samples
# [6] = Example 2 (comparative), feedstock
# [7] = Example 2 (comparative), micronised in a single process, composite
# [8] = Example 2 (comparative), micronised in a single process, individual samples
# [9] = Example 3 (comparative), feedstock
# [10] = Example 3 (comparative), micronised in a single process, composite
# [11] = Example 3 (comparative), micronised in a single process, individual samples
# [12] = Example 4, micronised first pass
# [13] = Example 4, micronised second pass
structure (smiles),measurement,setting,value
NC(=O)N1c2ccccc2CC(=O)c2ccccc21 [Oxcarbazepine],"D[v, 0.5]",[1],47.04 μm and 47.77 μm
same,"D[v, 0.9]",[1],98.61 μm and 101.96 μm
same,"D[v, 0.5] mean",[2],47.41 μm
same,"D[v, 0.9] mean",[2],100.29 μm
same,"D[v, 0.5] composite (average)",[3],15.27 μm
same,"D[v, 0.9] composite (average)",[3],53.30 μm
same,"D[v, 0.5]",[4],15.02 μm and 15.18 μm and 15.16 μm and 25.41 μm and 10.36 μm
same,"D[v, 0.9]",[4],52.08 μm and 51.71 μm and 51.94 μm and 67.97 μm and 44.13 μm
same,"D[v, 0.5]",[5],47.04 μm and 47.77 μm
same,"D[v, 0.9]",[5],98.61 μm and 101.96 μm
same,"D[v, 0.5] mean",[6],47.41 μm
same,"D[v, 0.9] mean",[6],100.29 μm
same,"D[v, 0.5] composite (average)",[7],5.95 μm
same,"D[v, 0.9] composite (average)",[7],30.47 μm
same,"D[v, 0.5]",[8],3.84 μm and 6.09 μm and 2.15 μm and 4.91 μm
same,"D[v, 0.9]",[8],19.56 μm and 31.90 μm and 11.56 μm and 27.25 μm
same,"D[v, 0.5]",[9],73.33 μm
same,"D[v, 0.9]",[9],323.50 μm
same,"D[v, 0.5] composite",[10],13.79 μm
same,"D[v, 0.9] composite (average)",[10],33.14 μm
same,"D[v, 0.5]",[11],7.50 μm and 19.51 μm and 15.09 μm and 15.64 μm
same,"D[v, 0.9]",[11],16.47 μm and 44.34 μm and 34.47 μm and 35.78 μm
same,"D[v, 0.5] mean","Example 4, initial feedstock",65.06 μm
same,"D[v, 0.9] mean","Example 4, initial feedstock",177.81 μm
same,"D[v, 0.5] mean",[12],33.89 μm
same,"D[v, 0.9] mean",[12],78.22 μm
same,"D[v, 0.5] mean",[13],16.30 μm
same,"D[v, 0.9] mean",[13],37.22 μm
